Reference: paper PMC6332320, “Factors Influencing Oral Bioavailability of Thai Mango Seed Kernel Extract and Its Key Phenolic Principles” (Molecules, 2015)
Values joined by “and” are separate entries in the source; they are usually repeats but may differ in a detail not shown here. Equal values may be shown once. Read-outs that look alike come from different tables or passages of the source.

Key:
[1] = human, in vivo, po; cited from earlier work
[2] = Caco-2 transepithelial transport experiment; type: in vitro ADME, human; details: human
Method: The transport experiment using Caco-2 monolayer was performed according to the criteria in our laboratory as previously reported with slight modification. Briefly, the cell monolayers were prepared by seeding 400,000 cells onto a polycarbonate insert, which has a surface area and pore size of 4.2 cm^2 and 3 μm, respectively (Nunc™, Thermo Fisher Scientific, Waltham, MA, USA). Cells were maintained in a humidified atmosphere at 37 °C (90% humidity and 5% CO2) and fed every other day. After 19 to 22 days post-seeding, the cell monolayers were used in the experiments. Before the experiment, the monolayers were quickly washed twice with pre-warmed HBSS at pH 7.4 (37 °C). The integrity of each monolayer was then verified by measuring the transepithelial electrical resistance (TEER) using a Millicell® ERS meter (Millipore, Bedford, MA, USA), and layers with TEER values less than 400 Ω/cm^2 relative to that of the blank insert were discarded. Then, the monolayers were incubated with the HBSS buffer at 37 °C for 1 h, and the incubation buffer was then aspirated. The test compounds were dissolved in HBSS at pH 6 to obtain final concentrations for the individual compounds (20 μM), mixture (20 μM) and MSKE (0.25 mg/mL), which were then loaded onto the A or B side (2.6 mL) as the donor side. A 2.6 mL aliquot of HBSS at pH 6 without the test compounds was loaded into the other side as the receiver side. After incubation at 37 °C, 0.6 mL of sample was collected from the receiver side at indicated times (60, 120, 180 and 240 min), and the same volume of receiver medium was replaced after each sampling. At the end of the experiment, the cells were washed twice with ice-cold HBSS at pH 6. The cells in each well were then collected and resuspended in 600 μL of HBSS at pH 6, and sonicated in an ice water bath at an output of 9 W for 30 min to obtain the cell lysates. The lysate was divided into the following aliquots: (1) 20 μL for quantitative protein assessment using a BCA™ protein assay kit and (2) 580 μL for quantitative test compounds. The samples collected from the transport study were stored at −20 °C until the UPLC or LC–MS/MS analysis. The experiments were performed in triplicate.
The apparent permeability coefficient (Papp, cm/s) of each compound was calculated according to the following equation (Equation (1)): (1) Papp= dQ/dt×1/AC0 where dQ/dt is the compound permeation rate (nmol/s), A denotes the membrane surface area, and C0 is the initial concentration on the donor side (µM). The efflux ratio was calculated according to the following equation (Equation (2)): (2) Efflux ratio= Papp BA(mean)/Papp AB(mean) where Papp BA (mean) and Papp AB (mean) are the average apparent permeability coefficients of each compound from side B to side A, and from side A to side B, respectively.

[3] = cited from earlier work
[4] = Chemical stability in HBSS at pH 5, 6, 7 and 8; type: physicochemical
Method: The chemical stability of GA, MG, PGG and MSKE was determined in HBSS at pH 5, 6, 7 and 8. The test compounds were added to HBSS to obtain the final concentrations (2 and 20 μM) for each standard compound or MSKE (0.25 mg/mL), which is equivalent to concentrations of 26.70 ± 1.35 µM GA, 4.90 ± 0.38 µM MG and 27.09 ± 8.01 µM PGG. The solutions at pH 5, 7 and 8 were then incubated in a water bath at 37 °C for 4 h, whereas the solutions at pH 6 were incubated for 8 h. Samples (200 μL) were collected at different time intervals (0, 1, 2, 3 and 4 h or 0, 1, 2, 4, 6 and 8 h) and then vortexed and centrifuged at 15,500 rpm for 15 min. The supernatant was injected into the UPLC for analysis. All experiments were performed in triplicate.
The chemical and biological stabilities of the phenolic compounds were expressed as the concentration of the analyte at different time points relative to the concentration of the same analyte at time zero multiplied by 100 (% recovery).

[5] = rats, i.p., mixture of MG and PGG 20 mg/kg each, cited from earlier work
[6] = as principle in MSKE 0.25 mg/mL, pH 5, 6 or 7, 4 h
[7] = as principle in MSKE 0.25 mg/mL, pH 6, 8 h
[8] = as principle in MSKE 0.25 mg/mL, pH 8, 4 h
[9] = individual compound 2 and 20 µM, pH 5 or 7, 4 h, 37 °C

Q: Which results are given for `O=C(O)c1cc(O)c(O)c(O)c1` [GA, Gallic acid]?
A: t1/2 [1]: ~1 h; Papp A→B at 240 min ([2]; Caco-2, pH 6, Papp A to B): 1.46 ± 0.21 ×10⁻⁶ cm/s; Papp B→A at 240 min ([2]; Caco-2, pH 6, Papp B to A): 8.04 ± 0.43 ×10⁻⁶ cm/s; Papp B→A at 240 min, 20 µM ([2]; Caco-2, pH 6, Papp B to A): 1.02 ± 0.29 ×10⁻⁶ cm/s; Cmax ([3]; rat, in vivo, po, 100 umol/kg): 710 nM; elimination t1/2 ([3]; rat, in vivo, po, 100 umol/kg): 24 min; Tmax ([3]; rats, p.o., GA as pure compound or component of rhubarb and grape seed extract, plasma): approximately 60 min; chemical stability in HBSS [4, 6]: stable; chemical stability in HBSS [4, 7]: moderately increased recovery; chemical stability in HBSS [4, 8]: decomposed; chemical stability in HBSS [4, 9]: only stable at pH 7

Q: For `COC(=O)c1cc(O)c(O)c(O)c1` [MG, methyl gallate], which Papp A→B at 240 min ([2]; Caco-2, pH 6, as principle in MSKE 0.25 mg/mL, HBSS pH 6, read-out: Papp A to B) is on record?
A: Its Papp A→B at 240 min is 17.6 ± 1.54 ×10⁻⁶ cm/s.

Q: And the Papp B→A at 240 min ([2]; Caco-2, pH 6, as principle in MSKE 0.25 mg/mL, HBSS pH 6, read-out: Papp B to A)?
A: Its Papp B→A at 240 min is 11.3 ± 0.31 ×10⁻⁶ cm/s.

Q: What about the efflux ratio at 240 min ([2]; Caco-2, pH 6, as principle in MSKE 0.25 mg/mL, Papp BA/Papp AB, read-out: Efflux Ratios) of the same molecule?
A: Its efflux ratio at 240 min is 0.66.

Q: And the efflux ratio at 240 min, 20 µM ([2]; Caco-2, pH 6, in mixture 20 μM, Papp BA/Papp AB, read-out: Efflux Ratios)?
A: The efflux ratio at 240 min, 20 µM was 0.51.

Q: And the Papp A→B at 240 min, 20 µM ([2]; Caco-2, pH 6, in mixture of GA, MG, PGG 20 μM, HBSS pH 6)?
A: Its Papp A→B at 240 min, 20 µM is 12.5 ± 0.63 ×10⁻⁶ cm/s.

Q: What about the Papp B→A at 240 min, 20 µM ([2]; Caco-2, pH 6, in mixture of GA, MG, PGG 20 μM, HBSS pH 6, read-out: Papp B to A) of the same molecule?
A: Its Papp B→A at 240 min, 20 µM is 6.33 ± 0.57 ×10⁻⁶ cm/s.

Q: And the Papp A→B at 240 min, 20 µM ([2]; Caco-2, pH 6, individual compound 20 μM, HBSS pH 6)?
A: Its Papp A→B at 240 min, 20 µM is 13.6 ± 0.4 ×10⁻⁶ cm/s.

Q: And the Papp B→A at 240 min, 20 µM ([2]; Caco-2, pH 6, individual compound 20 μM, HBSS pH 6, read-out: Papp B to A)?
A: Its Papp B→A at 240 min, 20 µM is 7.02 ± 1.11 ×10⁻⁶ cm/s.

Q: What about the efflux ratio at 240 min, 20 µM ([2]; Caco-2, pH 6, individual compound 20 μM, Papp BA/Papp AB, read-out: Efflux Ratios) of the same molecule?
A: Its efflux ratio at 240 min, 20 µM is 0.52.

Q: What about the Cmax ([5]; blood) of the same molecule?
A: Its Cmax is 35 µM and 34.7 µM.

Q: And the Tmax ([5]; blood)?
A: The Tmax was 51 ± 42 min.

Q: And the CL [5]?
A: Its CL is 159.91 ± 76.05 L/h/kg.

Q: What about the Ke [5] of the same molecule?
A: Its Ke is 0.056 ± 0.032 h⁻¹.

Q: And the MRTlast [5]?
A: The MRTlast was 8.71 ± 2.53 h.

Q: And the Vd [5]?
A: The Vd was 530.95 ± 247.54 L/kg.

Q: And the t1/2 [5]?
A: Its t1/2 is 17.50 ± 12.25 h.

Q: And the “chemical stability in HBSS” value [4, 6]?
A: The value was “increased recoveries”.

Q: What about the “chemical stability in HBSS” value [4, 7] of the same molecule?
A: Its value is “dramatically increased recoveries”.

Q: And the “chemical stability in HBSS” value [4, 8]?
A: The value was “slightly decreased recovery”.

Q: What about the “chemical stability in HBSS” value [4, 9] of the same molecule?
A: The value was “only stable at pH 7”.
